# Data reported in paper PMC9375364, “Fabrication of multifunctional metal–organic frameworks nanoparticles via layer-by-layer self-assembly to efficiently discover PSD95-nNOS uncouplers for stroke treatment” (Journal of Nanobiotechnology, 2022).
# Molecular target: T1, PSD95-nNOS (GFP-PSD95 coupled to His-nNOS on magnetic Fe-MOF) (Rattus norvegicus (nNOS); Homo sapiens (PSD95), UniProt P29476+P78352)
# T1 construct: gene Nos1; two-species complex; myc-His-nNOS (pcDNA3.1) and GFP-PSD95-Flag (pcDNA3.1), total synthesized genes, expressed in HEK293T, from RIPA lysates; His-nNOS immobilized on magnetic Fe-MOF, then GFP-PSD95 coupled
# T1 sequence (P29476 whole entry): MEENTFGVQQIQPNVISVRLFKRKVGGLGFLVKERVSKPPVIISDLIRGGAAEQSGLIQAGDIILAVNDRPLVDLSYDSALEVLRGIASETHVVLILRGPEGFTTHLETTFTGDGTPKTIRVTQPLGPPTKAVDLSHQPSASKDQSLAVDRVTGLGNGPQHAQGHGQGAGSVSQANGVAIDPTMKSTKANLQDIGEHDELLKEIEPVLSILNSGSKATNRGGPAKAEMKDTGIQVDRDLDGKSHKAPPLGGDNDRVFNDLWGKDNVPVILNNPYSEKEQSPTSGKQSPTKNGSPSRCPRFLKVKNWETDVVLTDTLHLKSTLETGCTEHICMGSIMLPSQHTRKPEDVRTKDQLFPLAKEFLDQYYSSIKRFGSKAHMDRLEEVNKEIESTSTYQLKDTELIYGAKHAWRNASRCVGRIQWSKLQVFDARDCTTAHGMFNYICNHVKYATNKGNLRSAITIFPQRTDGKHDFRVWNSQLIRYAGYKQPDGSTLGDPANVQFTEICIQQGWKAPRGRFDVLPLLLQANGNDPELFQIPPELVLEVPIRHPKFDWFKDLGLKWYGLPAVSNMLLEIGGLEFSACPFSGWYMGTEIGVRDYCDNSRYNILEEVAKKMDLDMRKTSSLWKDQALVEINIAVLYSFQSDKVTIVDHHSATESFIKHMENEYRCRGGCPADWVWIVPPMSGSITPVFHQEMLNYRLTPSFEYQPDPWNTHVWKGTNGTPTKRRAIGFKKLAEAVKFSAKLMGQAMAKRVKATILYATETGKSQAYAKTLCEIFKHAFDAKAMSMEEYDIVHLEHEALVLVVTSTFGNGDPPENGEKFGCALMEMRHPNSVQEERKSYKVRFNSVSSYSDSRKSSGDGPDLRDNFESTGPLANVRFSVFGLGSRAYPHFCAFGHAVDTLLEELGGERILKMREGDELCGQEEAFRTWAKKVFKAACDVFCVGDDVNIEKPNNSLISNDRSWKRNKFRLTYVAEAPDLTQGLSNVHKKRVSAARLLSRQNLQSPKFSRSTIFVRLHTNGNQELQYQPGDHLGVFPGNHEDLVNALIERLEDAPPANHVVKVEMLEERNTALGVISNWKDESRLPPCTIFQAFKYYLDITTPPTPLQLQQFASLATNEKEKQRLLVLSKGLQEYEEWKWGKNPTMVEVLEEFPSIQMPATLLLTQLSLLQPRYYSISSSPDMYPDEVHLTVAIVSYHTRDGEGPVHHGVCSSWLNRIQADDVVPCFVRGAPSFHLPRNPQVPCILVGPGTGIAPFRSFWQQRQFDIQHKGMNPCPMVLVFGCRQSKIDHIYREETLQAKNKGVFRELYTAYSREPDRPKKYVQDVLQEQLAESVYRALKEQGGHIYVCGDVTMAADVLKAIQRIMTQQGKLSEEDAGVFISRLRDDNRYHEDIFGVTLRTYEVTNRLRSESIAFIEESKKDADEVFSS
# T1 sequence (P78352 whole entry): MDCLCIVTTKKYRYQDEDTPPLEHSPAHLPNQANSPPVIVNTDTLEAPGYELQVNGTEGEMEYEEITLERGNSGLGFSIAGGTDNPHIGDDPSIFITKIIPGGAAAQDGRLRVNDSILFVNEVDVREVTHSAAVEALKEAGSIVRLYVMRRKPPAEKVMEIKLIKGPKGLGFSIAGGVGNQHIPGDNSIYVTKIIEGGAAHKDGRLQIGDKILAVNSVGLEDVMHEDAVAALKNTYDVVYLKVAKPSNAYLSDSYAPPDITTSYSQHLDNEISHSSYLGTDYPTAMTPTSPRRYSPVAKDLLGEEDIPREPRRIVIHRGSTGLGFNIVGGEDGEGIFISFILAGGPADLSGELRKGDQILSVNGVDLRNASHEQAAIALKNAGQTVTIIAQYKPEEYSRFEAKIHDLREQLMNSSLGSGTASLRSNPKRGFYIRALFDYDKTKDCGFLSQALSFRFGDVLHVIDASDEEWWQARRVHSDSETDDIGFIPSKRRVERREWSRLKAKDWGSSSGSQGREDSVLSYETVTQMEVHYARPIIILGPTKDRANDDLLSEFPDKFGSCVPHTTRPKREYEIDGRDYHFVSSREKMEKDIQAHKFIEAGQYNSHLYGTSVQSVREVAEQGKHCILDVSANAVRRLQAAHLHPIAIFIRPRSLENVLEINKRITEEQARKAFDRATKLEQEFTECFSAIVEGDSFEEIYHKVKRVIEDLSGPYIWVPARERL
# Assay: uncoupling of GFP-PSD95 from His-nNOS/Fe-MOF, magnetic separation, fluorescence
# Format: binding
# Conditions: not given
# Excerpt: uncoupling of GFP-PSD95 from His-nNOS/Fe-MOF, magnetic separation, fluorescence on PSD95-nNOS (GFP-PSD95 coupled to His-nNOS on magnetic Fe-MOF)
row,IC50 [µM],SMILES
1,1800 ± 151,"O=C(O)c1ccc(NCc2cc(Cl)cc(Cl)c2O)cc1O [ZL006, 4-(3,5-Dichloro-2-hydroxy-benzylamino)-2-hydroxybenzoic acid, reference compound]"
2,104 ± 1,"O=C(O)[C@H]1O[C@@H](Oc2cc3oc(-c4ccccc4)cc(=O)c3c(O)c2O)[C@H](O)[C@@H](O)[C@@H]1O [compound 1, Baicalin]"
3,144 ± 22,"O=c1cc(-c2ccccc2)oc2cc(O)c(O)c(O)c12 [compound 2, Baicalein]"
4,> 1800,"COc1cc(/C=C/c2cc(O)cc(O)c2)ccc1O [compound 6, Isorhapontigenin]"
5,> 1800,"COc1cc2c[n+](C)c3c4cc5c(cc4ccc3c2cc1OC)OCO5 [compound 7, Nitidine chloride]"
6,> 1800,"COc1cc(O)c2c(c1)C(=O)c1cc(C)cc(O)c1C2=O [compound 9, Physcion]"

row,SMILES,IC50 [µM]
1,"COc1ccc2c(c[n+](C)c3c4cc5c(cc4ccc23)OCO5)c1OC [compound 8, Chelerythrine]",> 1800

# Same assay, conditions: PBS pH 7.4, 0.1% DMSO, 4 °C, 5 h; immobilized nNOS; inhibition of PSD95-nNOS coupling, binding chain not told
row,SMILES,IC50 [µM]
1,"Oc1cc(O)cc(/C=C/c2c(O)cccc2O)c1 [compound 3, Gnetol]",492 ± 63
